# Source: patent US20230257710A1, “NATURAL KILLER CELL HAVING CONTROLLED ONCOLOGY-RELEATED GENE EXPRESSION, AND USE THEREOF” (SUNGKWANG MEDICAL FOUNDATION, priority 2020, published 2023)
# System: A2780cis xenograft
# Format: in vivo, NSG mice
# Procedure: The efficacy was evaluated by confirming the growth inhibitory effect of natural killer cells (pNK) cultured by the culture method according to one aspect as an immuno-anticancer agent. An A2780cis xenograft mouse model was prepared by subcutaneously injecting the […] ovarian cancer cell line A2780cis into the fat pad of 7-week-old NSG mice in an amount of 2×10^6 (cells). After ovarian cancer cell lines were injected, mice with tumors were randomly grouped on day 3: a group treated with intraperitoneal injection of cisplatin at 1 mg/kg, once/week; a group treated with intravenous injected of natural killer cells according to one aspect in the number of 1×10^7 (cells), 2 times/week; and a control group treated with the injection of PBS (FIG. 8). After injection of the ovarian cancer cell line, tumor size and body weight were measured daily.
structure (smiles),measurement,setting,value
N.N.[Cl][Pt][Cl] [cisplatin],cancer cell growth inhibitory effect,"compared to the control group (PBS), A2780cis xenograft NSG mice",about 55%
same,change in body weight,"mouse, in vivo",no significant change in body weight
